In US11130752B2, “Aminopyrimidine compound” (Cardurion Pharmaceuticals, LLC, priority 2018, dated 2021):
Structures can show the parent of a compound that is named as a salt.

Target: T1, human CaMKIIδ (Homo sapiens, UniProt Q13557)
T1 construct: Full-length, glutathione-S-transferase(GST)-tagged, human CaMKIIδ was purchased from Carna Biosciences; purchased Carna Biosciences (CaMKIIδ); Wako Pure Chemical Industries (calmodulin) 02-111
Experiment: In vitro CaMKII inhibitory activity (binding assay, TR-FRET)
Settings: Table 1, GST-tagged human CaMKIIδ, activity ranks
Method: Evaluation of In Vitro CaMKII Inhibitory Activity (Binding Assay)
In vitro CaMKIIδ inhibitory activity was evaluated by a binding assay.
Full-length, glutathione-S-transferase(GST)-tagged, human CaMKIIδ was purchased from Carna Biosciences (product #02-111, Kobe, Japan). Full-length bovine calmodulin was purchased from Wako Pure Chemical Industries (Osaka, Japan). Terbium-labeled anti-GST antibody (Tb-anti-GST Ab) was purchased from Life Technologies (Carlsbad, Calif., USA). Boron-dipyrromethene (BODIPY)-labeled probe ligand was synthesized as described below.
Time-Resolved Fluorescence Resonance Energy Transfer (TR-FRET) Assay
All assays were conducted using 384-well, white, flat-bottomed plates (product #784075, Greiner Bio-One, Frickenhausen, Germany) in kinase assay buffer, which consists of 50 mM HEPES pH 7.6, 10 mM MgCl2, 1 mM EGTA, 0.01% Brig-35, 0.1 mM DTT). The fluorescent probe ligand was added at a final concentration of 300 nM to solutions containing 0.21 nM Tb-anti-GST Ab, 1 mM CaCl2, 10 μg/mL calmodulin, and 0.5 nM GST-tagged CaMKIIδ. After shaded incubation of the protein-probe mixture on ice for 30 min, the premix was dispensed in the assay plate including test inhibitors with 4 fold dilution series of eight concentrations. After 1 hr incubation at room temperature, TR-FRET signals were measured in duplicate using an EnVision microplate reader (Perkin Elmer, Waltham, Mass., USA). The solution in each well was excited with a laser (λ=340 nm) reflected by a dichroic mirror (D400/D505 (Perkin Elmer) through an excitation filter (UV (TRF) 340, (Perkin Elmer)), and fluorescence from Tb and BODIPY were detected through two emission filters (CFP 495 (Perkin Elmer) for Tb, Emission 520 (Perkin Elmer) for BODIPY).
The percentage of inhibition of test compounds was calculated according to equation (1) Inhibition(%)=100×(μH−T)/(μH−μL) (1)
Where T is the value of the wells containing test compounds and μH and μL are the mean values of the 0% and 100% inhibition control wells, respectively. The values of the 0 and 100% controls were the signals obtained in the absence and presence of 3 μM its parent compound, respectively. The half maximal inhibitory concentration (IC50) of test compounds was calculated by fitting the data with the logistic equation using XLfit (IDBS, Guildford, UK). The IC50 was classified according to the following activity ranks.

SMILES	IC50 [µM]
COCCOCCOc1nn([C@H]2CC[C@H](N3C[C@@H](C)O[C@@H](C)C3)CC2)cc1Nc1ncc(-c2ccc(Cl)c(O[C@@H](C)Cn3cnnn3)c2)cn1 [Example 240, 5-(3-(((S)-1-(1H-tetrazol-1-yl)propan-2-yl)oxy)-4-chlorophenyl)-N-(1-((1r,4r)-4-((2S,6R)-2,6-dimethylmorpholino)cyclohexyl)-3-(2-(2-methoxyethoxy)ethoxy)-1H-pyrazol-4-yl)pyrimidin-2-amine hydrochloride]	< 0.01
CCOCCCOc1nn([C@H]2CC[C@H](N3[C@@H]4CC[C@H]3COC4)CC2)cc1Nc1ncc(-c2ccc(Cl)c(O[C@@H](C)Cn3cnnn3)c2)cn1 [Example 242, 5-(3-(((S)-1-(1H-tetrazol-1-yl)propan-2-yl)oxy)-4-chlorophenyl)-N-(1-((1r,4r)-4-((1R,5S)-3-oxa-8-azabicyclo[3.2.1]octan-8-yl)cyclohexyl)-3-(3-ethoxypropoxy)-1H-pyrazol-4-yl)pyrimidin-2-amine]	< 0.01
C[C@@H](Cn1cnnn1)Oc1cc(-c2cnc(Nc3cn([C@H]4CC[C@H](N5[C@@H]6CC[C@H]5COC6)CC4)nc3OCCO)nc2)ccc1Cl [Example 243, 2-((4-((5-(3-(((S)-1-(1H-tetrazol-1-yl)propan-2-yl)oxy)-4-chlorophenyl)pyrimidin-2-yl)amino)-1-((1r,4r)-4-((1R,5S)-3-oxa-8-azabicyclo[3.2.1]octan-8-yl)cyclohexyl)-1H-pyrazol-3-yl)oxy)ethan-1-ol]	< 0.01
C[C@@H](Cn1cnnn1)Oc1cc(-c2cnc(Nc3cn([C@H]4CC[C@H](N5[C@@H]6CC[C@H]5COC6)CC4)nc3OCCO)nc2)ccc1C#N [Example 244, 2-(((S)-1-(1H-tetrazol-1-yl)propan-2-yl)oxy)-4-(2-((1-((1r,4r)-4-((1R,5S)-3-oxa-8-azabicyclo[3.2.1]octan-8-yl)cyclohexyl)-3-(2-hydroxyethoxy)-1H-pyrazol-4-yl)amino)pyrimidin-5-yl)benzonitrile]	< 0.01
C[C@@H](Cn1cnnn1)Oc1cc(-c2cnc(Nc3cn([C@H]4CC[C@H](N5CCOCC5)CC4)nc3O)nc2)ccc1C#N [Example 461, 2-(((S)-1-(1H-tetrazol-1-yl)propan-2-yl)oxy)-4-(2-((3-hydroxy-1-((1r,4r)-4-morpholinocyclohexyl)-1H-pyrazol-4-yl)amino)pyrimidin-5-yl)benzonitrile]	< 0.01
C[C@@H](Cn1cnnn1)Oc1cc(-c2cnc(Nc3cn([C@H]4CC[C@H](N5CCOCC5)CC4)nc3O)nc2)ccc1Cl [Example 462, 4-((5-(3-(((S)-1-(1H-tetrazol-1-yl)propan-2-yl)oxy)-4-chlorophenyl)pyrimidin-2-yl)amino)-1-((1r,4r)-4-morpholinocyclohexyl)-1H-pyrazol-3-ol]	< 0.01

Same assay, conditions: Table 4, GST-tagged human CaMKIIδ, activity ranks

SMILES	IC50 [µM]
C[C@@H]1CN([C@H]2CC[C@H](n3cc(Nc4ncc(-c5ccc(Cl)c(O[C@@H](C)Cn6cnnn6)c5)cn4)c(OCc4nncn4C)n3)CC2)C[C@H](C)O1 [Example 473, 5-(3-(((S)-1-(1H-tetrazol-1-yl)propan-2-yl)oxy)-4-chlorophenyl)-N-(1-((1r,4r)-4-((2S,6R)-2,6-dimethylmorpholino)cyclohexyl)-3-((4-methyl-4H-1,2,4-triazol-3-yl)methoxy)-1H-pyrazol-4-yl)pyrimidin-2-amine]	< 0.01
C[C@@H]1CN([C@H]2CC[C@H](n3cc(Nc4ncc(-c5ccc(Cl)c(O[C@@H](C)Cn6cnnn6)c5)cn4)c(OCCCOCCO)n3)CC2)C[C@H](C)O1 [Example 474, 2-(3-((4-((5-(3-(((S)-1-(1H-tetrazol-1-yl)propan-2-yl)oxy)-4-chlorophenyl)pyrimidin-2-yl)amino)-1-((1r,4r)-4-((2S,6R)-2,6-dimethylmorpholino)cyclohexyl)-1H-pyrazol-3-yl)oxy)propoxy)ethan-1-ol]	< 0.01
C[C@@H]1CN([C@H]2CC[C@H](n3cc(Nc4ncc(-c5ccc(Cl)c(O[C@@H](C)Cn6cnnn6)c5)cn4)c(OCCCO)n3)CC2)C[C@H](C)O1 [Example 475, 3-((4-((5-(3-(((S)-1-(1H-tetrazol-1-yl)propan-2-yl)oxy)-4-chlorophenyl)pyrimidin-2-yl)amino)-1-((1r,4r)-4-((2S,6R)-2,6-dimethylmorpholino)cyclohexyl)-1H-pyrazol-3-yl)oxy)propan-1-ol]	< 0.01
Cc1ncc(COc2nn([C@H]3CC[C@H](N4C[C@@H](C)O[C@@H](C)C4)CC3)cc2Nc2ncc(-c3ccc(C#N)c(O[C@@H](C)Cn4cnnn4)c3)cn2)s1 [Example 476, 2-(((S)-1-(1H-tetrazol-1-yl)propan-2-yl)oxy)-4-(2-((1-((1r,4r)-4-((2S,6R)-2,6-dimethylmorpholino)cyclohexyl)-3-((2-methylthiazol-5-yl)methoxy)-1H-pyrazol-4-yl)amino)pyrimidin-5-yl)benzonitrile]	< 0.01
COC(C)(C)CCOc1nn([C@H]2CC[C@H](N3C[C@@H](C)O[C@@H](C)C3)CC2)cc1Nc1ncc(-c2ccc(C#N)c(O[C@@H](C)Cn3cnnn3)c2)cn1 [Example 478, 2-(((S)-1-(1H-tetrazol-1-yl)propan-2-yl)oxy)-4-(2-((1-((1r,4r)-4-((2S,6R)-2,6-dimethylmorpholino)cyclohexyl)-3-(3-methoxy-3-methylbutoxy)-1H-pyrazol-4-yl)amino)pyrimidin-5-yl)benzonitrile]	< 0.01
C[C@@H]1CN([C@H]2CC[C@H](n3cc(Nc4ncc(-c5ccc(C#N)c(O[C@@H](C)Cn6cnnn6)c5)cn4)c(OCC4COC4)n3)CC2)C[C@H](C)O1 [Example 479, 2-(((S)-1-(1H-tetrazol-1-yl)propan-2-yl)oxy)-4-(2-((1-((1r,4r)-4-((2S,6R)-2,6-dimethylmorpholino)cyclohexyl)-3-(oxetan-3-ylmethoxy)-1H-pyrazol-4-yl)amino)pyrimidin-5-yl)benzonitrile]	< 0.01
C[C@@H]1CN([C@H]2CC[C@H](n3cc(Nc4ncc(-c5ccc(Cl)c(O[C@@H](C)Cn6cnnn6)c5)cn4)c(OCC4COC4)n3)CC2)C[C@H](C)O1 [Example 480, 5-(3-(((S)-1-(1H-tetrazol-1-yl)propan-2-yl)oxy)-4-chlorophenyl)-N-(1-((1r,4r)-4-((2S,6R)-2,6-dimethylmorpholino)cyclohexyl)-3-(oxetan-3-ylmethoxy)-1H-pyrazol-4-yl)pyrimidin-2-amine]	< 0.01
C[C@@H]1CN([C@H]2CC[C@H](n3cc(Nc4ncc(-c5ccc(Cl)c(O[C@@H](C)Cn6cnnn6)c5)cn4)c(OCCO)n3)CC2)C[C@H](C)O1 [Example 481, 2-((4-((5-(3-(((S)-1-(1H-tetrazol-1-yl)propan-2-yl)oxy)-4-chlorophenyl)pyrimidin-2-yl)amino)-1-((1r,4r)-4-((2S,6R)-2,6-dimethylmorpholino)cyclohexyl)-1H-pyrazol-3-yl)oxy)ethan-1-ol]	< 0.01
C[C@@H]1CN([C@H]2CC[C@H](n3cc(Nc4ncc(-c5ccc(Cl)c(O[C@@H](C)Cn6cnnn6)c5)cn4)c(OC[C@@H](C)O)n3)CC2)C[C@H](C)O1 [Example 482, (R)-1-((4-((5-(3-(((S)-1-(1H-tetrazol-1-yl)propan-2-yl)oxy)-4-chlorophenyl)pyrimidin-2-yl)amino)-1-((1r,4r)-4-((2S,6R)-2,6-dimethylmorpholino)cyclohexyl)-1H-pyrazol-3-yl)oxy)propan-2-ol]	< 0.01
